Assay results from patent US8680071B2 (Idenix Pharmaceuticals, Inc., priority 2010, dated 2014).
Like-named read-outs stand apart in the source and are kept apart here.

Experiments:
[1] = Cytotoxicity evaluation (Cell Titer 96 AQueous One Solution Cell Proliferation Assay); assay type: cell-based; details: human, GS4.1 cells, cellular viability, read-out: HCV Replicon CC50
Description: (§1) Huh-7 cells containing HCV Con1 subgenomic replicon (GS4.1 cells), (C. Seeger; Fox Chase University, Philadelphia, Pa., USA), are grown in Dulbecco's Modified Eagle Medium (DMEM) supplemented with 10% fetal bovine serum (FBS), 2 mM L-glutamine, 110 mg/L sodium pyruvate, 1× non-essential amino acids, 100 U/mL penicillin-streptomycin and 0.5 mg/mL G418 (Invitrogen). For dose-response testing, the cells are seeded in 96-well plates at 7.5×10^3 cells/well in a volume of 50 μL and incubated at 37° C./5% CO2. Three hours after plating, 50 μL of ten 2-fold serial dilutions of compounds (highest concentration, 75 μM) are added and cell cultures were incubated at 37° C./5% CO2 in the presence of 0.5% DMSO. Alternatively, compounds are tested at a single concentration of 15 μM. In all cases, Huh-7 cells lacking the HCV replicon served as negative control. The cells are incubated in the presence of compounds for 72 hours after which they were monitored for expression of the NS4A protein by enzyme-linked immunosorbent assay (ELISA). For this, the plates were then fixed for 1 min with 1:1 acetone:methanol, washed twice with phosphate-buffered saline (PBS), 0.1% Tween 20, blocked for 1 hour at room temperature with TNE buffer containing 10% FBS and then incubated for 2 h at 37° C. with the anti-NS4A mouse monoclonal antibody A-236 (ViroGen) diluted in the same buffer. After washing three times with PBS, 0.1% Tween 20, the cells are incubated 1 hour at 37° C. with anti-mouse immunoglobulin G-peroxidase conjugate in TNE, 10% FBS. After washing as described above, the reaction is developed with O-phenylenediamine (Zymed). The reaction is stopped after 30 minutes with […] and the absorbance is read at 492 nm using a Sunrise Tecan spectrophotometer. EC50 values are determined from the % inhibition versus concentration data using a sigmoidal non-linear regression analysis based on four parameters with Tecan Magellan software. When screening at a single concentration, the results are expressed as % inhibition at 15 μM. For cytotoxicity evaluation, GS4.1 cells are treated with compounds as described above and cellular viability was monitored using a Cell Titer 96 AQueous One Solution Cell Proliferation Assay (Promega). CC50 values are determined from the % cytotoxicity versus concentration data with Tecan Magellan software as described above.

[2] = test system: HCV Con1 subgenomic replicon; assay: HCV replicon assay (NS4A ELISA); assay type: cell-based; details: Hepatitis C virus
Description: as §1
Compounds presented in the table below were assayed according to the replicon assay described above.

[3] = ELISA 2 assay, Huh-7 cells containing HCV Con1 subgenomic replicon (GS4.1 cells), 72 hours, NS4A expression, read-out: HCV Replicon EC50
[4] = Huh-7, 72 h, read-out: HCV Replicon EC50 (μM)

For `C[C@@]1(O)[C@H](O)[C@@H](CO)O[C@H]1n1cnc2c(=O)[nH]c(N)nc21` [2′-C-methylguanosine, reference compound], the CC50 at 72 h [1] was greater than 75 µM and the EC50 [2, 3] was 1 to 10 µM.

`COC(=O)C(CC(C)C)NP(=O)(NC(CC(C)C)C(=O)OC)OC[C@H]1O[C@@H](n2cnc3c(OC)nc(N)nc32)C(C)(O)C1O` (stereo partly drawn) [Compound 3] showed a CC50 at 72 h [1] greater than 75 µM and an EC50 [2, 3] of less than 1 µM.

In the case of `COC(=O)C(CC(C)C)NP(=O)(NC(CC(C)C)C(=O)OC)OC[C@H]1O[C@@H](n2cnc3c(OC)nc(N)nc32)[C@@]2(C)OC(=O)OC12` (stereo partly drawn) [Compound 4], the CC50 at 72 h [1] is reported as greater than 75 µM and the EC50 [2, 3] is reported as less than 1 µM.

Work on `CCOC(=O)C(CC(C)C)NP(=O)(NC(CC(C)C)C(=O)OCC)OC[C@H]1O[C@@H](n2cnc3c(NC4CC4)nc(N)nc32)C(C)(O)C1O` (stereo partly drawn) [Compound 6] yielded a CC50 at 72 h [1] greater than 75 µM and an EC50 [2, 3] of less than 1 µM.

For `COC(=O)C(CC(C)C)NP(=O)(NC(CC(C)C)C(=O)OC)OC[C@H]1O[C@@H](n2cnc3c(NC4CC4)nc(N)nc32)C(C)(O)C1O` (stereo partly drawn) [Compound 8], the CC50 at 72 h [1] was greater than 75 µM and the EC50 [2, 3] was less than 1 µM.

In the case of `COC(=O)C(CC(C)C)NP(=O)(NC(CC(C)C)C(=O)OC)OC[C@H]1O[C@@H](n2cnc3c(=O)[nH]c(N)nc32)C(C)(O)C1O` (stereo partly drawn) [Compound 9], the CC50 at 72 h [1] is reported as greater than 75 µM and the EC50 [2, 4] is reported as 1 to 10 µM.

For `C#CC1(F)C(O)[C@@H](COP(=O)(NCC(=O)OCC)NCC(=O)OCC)O[C@H]1n1cnc2c(=O)[nH]c(N)nc21` (stereo partly drawn) [Compound 48], the CC50 at 72 h [1] was greater than 75 µM and the EC50 [2, 4] was greater than 10 µM.

With `CCOC(=O)CNP(=O)(NCC(=O)OCC)OC[C@H]1O[C@@H](n2cnc3c(=O)[nH]c(N)nc32)C(C)(O)C1O` (stereo partly drawn) [Compound 54] the CC50 at 72 h [1] was greater than 75 µM and the EC50 [2, 4] was 1 to 10 µM.

`C#C[C@@]1(F)[C@H](O)[C@@H](CO)O[C@H]1n1cnc2c(=O)[nH]c(N)nc21` [reference compound] showed a CC50 at 72 h [1] greater than 75 µM and an EC50 [2, 3] greater than 10 µM.
